Experimental data as given in patent publication US20250092030A1, “ENHANCERS OF PARTICULATE GUANYLYL CYCLASE RECEPTOR A” (Mayo Foundation for Medical Education and Research, priority 2023, published 2025).
“And” between values parts separate entries of the source, which are not always exact repeats. Identical values can stand only once.

Target: T1, particulate guanylyl cyclase receptor A (pGC-A) (Homo sapiens, UniProt P16066)
T1 construct: expressed in transfected cells; host or cells: HEK293
T1 sequence (P16066 33-1061): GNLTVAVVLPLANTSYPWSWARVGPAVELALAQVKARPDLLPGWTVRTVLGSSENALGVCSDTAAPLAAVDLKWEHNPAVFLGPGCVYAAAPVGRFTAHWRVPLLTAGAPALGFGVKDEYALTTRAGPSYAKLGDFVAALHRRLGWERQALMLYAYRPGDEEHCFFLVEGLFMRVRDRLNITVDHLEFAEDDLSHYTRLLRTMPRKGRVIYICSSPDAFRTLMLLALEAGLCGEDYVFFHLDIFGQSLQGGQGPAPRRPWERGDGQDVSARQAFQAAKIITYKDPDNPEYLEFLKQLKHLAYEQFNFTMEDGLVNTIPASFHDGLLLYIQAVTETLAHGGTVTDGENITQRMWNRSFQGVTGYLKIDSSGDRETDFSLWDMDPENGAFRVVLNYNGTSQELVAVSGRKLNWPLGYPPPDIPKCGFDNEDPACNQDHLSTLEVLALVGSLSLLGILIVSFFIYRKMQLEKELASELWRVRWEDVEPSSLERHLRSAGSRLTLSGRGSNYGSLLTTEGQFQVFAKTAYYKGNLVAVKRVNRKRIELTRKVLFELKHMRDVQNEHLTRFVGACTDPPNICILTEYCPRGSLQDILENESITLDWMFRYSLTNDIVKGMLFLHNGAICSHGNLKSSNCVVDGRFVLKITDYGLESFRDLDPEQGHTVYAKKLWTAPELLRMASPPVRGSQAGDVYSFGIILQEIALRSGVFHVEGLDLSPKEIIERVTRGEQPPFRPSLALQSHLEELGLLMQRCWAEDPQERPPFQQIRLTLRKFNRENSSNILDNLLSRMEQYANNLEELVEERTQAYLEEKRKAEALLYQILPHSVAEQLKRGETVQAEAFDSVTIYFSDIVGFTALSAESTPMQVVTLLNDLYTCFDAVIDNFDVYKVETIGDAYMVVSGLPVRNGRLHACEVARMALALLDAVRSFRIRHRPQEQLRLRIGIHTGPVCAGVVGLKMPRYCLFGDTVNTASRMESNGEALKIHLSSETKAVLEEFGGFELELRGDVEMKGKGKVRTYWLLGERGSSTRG
T1 sequence (P01160 124-151 partner limits assumed): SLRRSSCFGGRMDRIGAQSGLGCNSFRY
Test: cGMP production by HTRF in HEK293 cells overexpressing pGC-A, with ANP
Format: cell-based
Details: for Emax: HEK293, HEK293 cells overexpressing pGC-A, read-out: Max efficacy; for Emax / Max efficacy: cGMP normalized to maximal amount produced by an EC80 concentration of ANP; for EC50 / Max efficacy: HEK293 cells overexpressing pGC-A; for EC50: test compound plus EC20 concentration of ANP, cGMP by HTRF
Description: Assay: Generally, the assay monitors the production of cGMP, the second messenger generated by pGC-A, by Time-Resolved Florescence (HTRF) in HEK293 cells overexpressing the pGC-A. pGC-A suspension cells were stimulated in the presence of the test compound and an EC20 concentration of ANP. The quantity of cGMP was detected by competitive immunoassay using Eu^3+ cryptate-labeled anti-cGMP and d2-labeled cGMP and normalized to maximal amount produced by an EC80 concentration of ANP. Compound EC50 values were determined in the primary assay, in the presence or absence of ANP, to determine mode of action as positive modulators and tested for selectivity in the same assay platform but in HEK cells overexpressing the particulate guanylyl cyclase B receptor (pGC-B), of which CNP is the endogenous ligand.
Assay details: 20 nL of 10 μM test compound in DMSO was added to columns 5-48 of 1536 well white high base screening plates (Corning, New York, NY) cells using 550 ECHO acoustic dispenser (Labcyte, San Jose, CA). Alpha-atrial natriuretic peptide (ANP) (Phoenix Pharmaceutics) was prepared as stock aliquots at 5 μM in PBS with 0.1% BSA. An approximate […] concentration of ANP ([…]) in assay buffer (HBSS containing 5 mM HEPES and 0.05% BSA) was added to columns 3-48 at a volume of 1 μL. Assay buffer only was added to column 1 and assay buffer containing a saturating concentration of ANP (5 nM) was added to column 2. HEK293 cells overexpressing GC-A were resuspended in assay media (OptimMem media containing 2% Heat-inactivated Fetal bovine serum and L-glutamine) at a density of 6×10^5 cells/mL and 2 μL were plated in screening plates (1200 cells/well) in suspension using a Bioraptr 2. Plates were spun at 1000 rpm for 1 min and incubated for 30 min at room temperature. 1.5 μL d2-labeled cGMP followed by 1.5 μL Eu^3+ cryptate-labeled anti-cGMP cGMP detection kit (CiBio; #62GM2PEC) prepared according to manufacturer's protocol were added to all wells using a Bioraptr 2 and TR-FRET signal was detected on an EnVision detector (PerkinElmer). Wells treated with 0.3% DMSO only serve as blank controls (column 1); wells treated with 0.3% DMSO and 5 nM ANP (columns 2) serve as positive controls and wells treated with 0.3% DMSO and […] ANP (columns 3-4) serve as negative controls.

Row | Structure (SMILES) | Emax [%] | EC50 | Max efficacy
1 | CN1CC(N2CCCC(C(=O)Nc3nc4c(F)cc(F)cc4s3)C2)C1 (centres unmarked) [compound 084] | 83 | 70 nM and 20 nM | 67%
2 | CN1CC(N2CCCC(C(=O)Nc3nc4c(Cl)cc(F)cc4s3)C2)C1 (centres unmarked) [compound 103] | 82 | 280 nM | 
3 | CN(C)CCN1CCCC(C(=O)Nc2nc(-c3ccccc3F)cs2)C1 (centres unmarked) [compound 145] |  | > 5000 nM | 
4 | CN(C)CCN1CCCC(C(=O)Nc2nc3c(Cc4ccccc4)cccc3s2)C1 (centres unmarked) [compound 004] |  | > 10000 nM | 
5 | CN(C)CCN1CCCC(C(=O)Nc2nc3cc(F)ccc3s2)C1 (centres unmarked) [compound 010] |  | > 10000 nM | 
6 | CN(C)CCN1CCCC(C(=O)Nc2nc3ccc(Cl)cc3s2)C1 (centres unmarked) [compound 016] | 94 | 9500 nM | 
7 | O=C(Nc1nc2c(F)cc(F)cc2s1)C1CCCN(Cc2ccncc2)C1 (centres unmarked) [compound 110] | 95 | 460 nM and 1100 nM | 78%
8 | CN(C)CCN1CCCC(C(=O)Nc2nc3c(F)cc(-c4ccccc4)cc3s2)C1 (centres unmarked) [compound 022] |  | > 5000 nM | 
9 | Cn1cc(N2CCCC(C(=O)Nc3nc4c(F)cc(F)cc4s3)C2)cn1 (centres unmarked) [compound 078] | 86 | 4900 nM and 2100 nM | 81%
10 | CN1CCCC(N2CCCC(C(=O)Nc3nc4c(F)cc(F)cc4s3)C2)C1 (centres unmarked) [compound 070] |  |  | 71% and 85%
11 | O=C(Nc1nc2c(Cl)cc(F)cc2s1)C1CCCN(c2ccnc3ccccc23)C1 (centres unmarked) [compound 114] |  | > 5000 nM | 
12 | CN(C)CCN1Cc2ccccc2C(C(=O)Nc2nc3c(F)cc(F)cc3s2)C1 (centres unmarked) [compound 059] |  | > 5000 nM | 
13 | COCCN1CCC(N2CCCC(C(=O)Nc3nc4c(F)cc(F)cc4s3)C2)C1 (centres unmarked) [compound 093] | 86 | 90 nM | 
14 | O=C(Nc1nc2c(F)cc(F)cc2s1)C1CCCN(C2CCCC2)C1 (centres unmarked) [compound 099] | 91 | 600 nM | 
15 | COC(=O)CN1CC(N2CCCC(C(=O)Nc3nc4c(Cl)cc(F)cc4s3)C2)C1 (centres unmarked) [compound 139] | 79 | 200 nM | 
16 | CN(C)CCN1CCCC(C(=O)Nc2nc(-c3ccccc3Cl)cs2)C1 (centres unmarked) [compound 148] |  | > 5000 nM | 

Row | Structure (SMILES) | Emax [%] | EC50 | Max efficacy
17 | O=C(Nc1nc2c(F)cc(F)cc2s1)C1CCCN(c2ccncc2)C1 (centres unmarked) [compound 081] | 87 | 100 nM and 70 nM and 300 nM | 87, 87, 87%
18 | COCc1cc(F)c2nc(NC(=O)C3CCCN(CCN(C)C)C3)sc2c1 (centres unmarked) [compound 029] |  | > 5000 nM | 
19 | CN(C)c1ccc(N2CCCC(C(=O)Nc3nc4c(F)cc(F)cc4s3)C2)cc1 (centres unmarked) [compound 066] | 77 | 1900 nM | 
20 | O=C(Nc1nc2c(F)cc(F)cc2s1)C1CCCN(c2cccnc2)C1 (centres unmarked) [compound 080] |  | 7400 nM and 2500 nM | 135% and 104%
21 | CN(C)CCN1CCCC(C(=O)Nc2nc3c(-c4ccccc4)cccc3s2)C1 (centres unmarked) [compound 003] |  | > 10000 nM | 
22 | CN1CCCC1CN1CCCC(C(=O)Nc2nc3c(F)cc(F)cc3s2)C1 (centres unmarked) [compound 072] |  | 1200 nM and 1000 nM | 118% and 94%
23 | COc1ccccc1-c1csc(NC(=O)C2CCCN(CCN(C)C)C2)n1 (centres unmarked) [compound 154] |  | > 5000 nM | 
24 | O=C(Nc1nc2c(F)cc(F)cc2s1)C1CNCCN1C(=O)OCc1ccccc1 (centres unmarked) [compound 043] |  | > 5000 nM | 
25 | N[C@H]1CCC[C@H](C(=O)Nc2nc3c(F)cc(F)cc3s2)C1 [210C] |  | 1900 nM | 
26 | N[C@@H]1CCC[C@@H](C(=O)Nc2nc3c(F)cc(F)cc3s2)C1 [210T] | 86 | 500 nM | 
27 | O=C(O)CN1CCC(N2CCCC(C(=O)Nc3nc4c(F)cc(F)cc4s3)C2)C1 (centres unmarked) [compound 095] |  | > 5000 nM | 
28 | CN(C)CCN1CCCCC1C(=O)Nc1nc2c(F)cc(F)cc2s1 (centres unmarked) [compound 037] | 96 |  | 
29 | CN(C)CCN1CCCCC(C(=O)Nc2nc3c(F)cc(F)cc3s2)C1 (centres unmarked) [compound 055] | 89 | 600 nM | 
30 | CN(C)CCN1CCCC1C(=O)Nc1nc2c(F)cc(F)cc2s1 (centres unmarked) [compound 053] | 92 | 800 nM | 
31 | CN(C)CCN1CCCC(C(=O)Nc2nc3ccc(F)cc3s2)C1 (centres unmarked) [compound 015] |  | > 10000 nM | 
32 | CN(C)CCN1CCOC(C(=O)Nc2nc3c(F)cc(F)cc3s2)C1 (centres unmarked) [compound 046] |  | > 5000 nM | 

The remaining lines, values ahead:

Row | Emax [%] | EC50 | Max efficacy | Structure (SMILES)
33 | 97 | 360 nM |  | CN(C)CCN1CCCC(C(=O)Nc2nc3c(Cl)cccc3s2)C1 (centres unmarked) [compound 225]
34 | 78 | 900 nM |  | CN(C)CCC1CCCC(C(=O)Nc2nc3c(Cl)cc(F)cc3s2)C1 (centres unmarked) [compound 215]
35 | 86 | 400 nM |  | CN(C)CCN1CC(O)CC(C(=O)Nc2nc3c(F)cc(F)cc3s2)C1 (centres unmarked) [compound 262]
36 | 105 | 700 nM |  | O=C(Nc1nc2c(F)cc(F)cc2s1)C1CCCN(CCNCCO)C1 (centres unmarked) [compound 240]
37 |  | > 5000 nM |  | COc1cccc(-c2csc(NC(=O)C3CCCN(CCN(C)C)C3)n2)c1 (centres unmarked) [compound 155]
38 |  | > 5000 nM |  | CN(C)CCN1CCCC(C(=O)Nc2nc3c(F)cc(F)cc3c(=O)[nH]2)C1 (centres unmarked) [compound 182]
39 |  | > 10000 nM |  | COc1ccc(C(=O)Nc2nc3c(F)cc(F)cc3s2)cc1 [compound 205]
40 | 60 | 1400 nM |  | CN(C)CCN1CCCC(C(=O)Nc2nc3c(Cl)c(Cl)ccc3s2)C1 (centres unmarked) [compound 250]
41 | 94 | 280 nM |  | O=C(Nc1nc2c(F)cc(F)cc2s1)C1CCCN(CCN2CCOCC2)C1 (centres unmarked) [compound 244]
42 | 91 | 1500 nM |  | CN(C)C1CCN(CC(=O)Nc2nc3c(F)cc(F)cc3s2)CC1 [compound 219]
43 | 82 | 2100 nM |  | CN(C)CCN1CCCC(C(=O)N(C)c2nc3c(F)cc(F)cc3s2)C1 (centres unmarked) [compound 232]
44 | 93 | 1500 nM |  | CN(C)CCN1CCC(C(=O)Nc2nc3c(F)cc(F)cc3s2)CC1 [compound 227]
45 |  | > 10000 nM |  | O=C(Nc1nc2c(F)cc(F)cc2s1)c1ccccc1 [compound 199]
46 |  | > 10000 nM |  | CN(C)CCN1CCCC(C(=O)Nc2nc3ccccc3s2)C1 (centres unmarked) [compound 216]
47 | 70 | 2600 nM |  | CC(C)NC(=O)N1CCCC(C(=O)Nc2nc3c(F)cc(F)cc3s2)C1 (centres unmarked) [compound 278]
48 | 45 | 1300 nM |  | O=C(Nc1nc2c(F)cc(F)cc2s1)C1CNCC(O)C1 (centres unmarked) [compound 263]
49 |  | > 5000 nM |  | COc1ccc(-c2csc(NC(=O)C3CCCN(CCN(C)C)C3)n2)cc1 (centres unmarked) [compound 156]
50 |  | > 10000 nM |  | O=C(Nc1nc2c(F)cc(F)cc2s1)c1ccc(-c2ccccc2)cc1 [compound 206]
51 | 91 | 1900 nM |  | CN(C)C(=O)CN1CCCC(C(=O)Nc2nc3c(F)cc(F)cc3s2)C1 (centres unmarked) [compound 229]
52 |  | > 10000 nM |  | O=C(Nc1nc2c(F)cc(F)cc2s1)c1ccc(Cl)cc1 [compound 202]
